Assay results from patent publication US7914827B2, “Use of extracts or extractants of the guajacum types, said extracts or extractants bringing about phosphodiesterase-4 inhibition and method for producing the same” (Max Zeller Soehne AG, priority 2006, dated 2011).

Molecular target: human phosphodiesterase-5 (PDE5) (Homo sapiens, UniProt O76074)
Experiment: PDE5 assay (3H-cGMP as tracer)
Format: biochemical
Details: read-out: Inhibitory activity [%], PDE5

In the case of `CCCc1nn(C)c2c(=O)[nH]c(-c3cc(S(=O)(=O)N4CCN(C)CC4)ccc3OCC)nc12` [Sildenafil], the inhibition at 1 pM is reported as 5%, the inhibition at 0.0001 µM is reported as 21% and the inhibition at 0.01 µM is reported as 52%. For the same compound, the inhibition at 1 µM was 74%.
